Laboratory results published in patent US7829591B2, “Flavanone compound and uses thereof” (Pokka Corporation, priority 2003, dated 2010).

What was measured:
[1] = test system: breast cancer cells (MCF-7); assay: Breast cancer cell proliferation-inhibition test; assay type: cell-based; details: for Relative Value of Living Cells: 0.1 nM estradiol, Control 1 at 0 day = 1
Method: When breast cancer cells (MCF-7) are cultured, if estradiol (or 17β-estradiol) having a cell-proliferation accelerating action, is added thereto, the proliferation of breast cancer cells can be simply promoted in a short period. This phenomenon was utilized so as to examine the effect of each of Compounds 1 to 4 and the like on the proliferation inhibition of breast cancer cells. That is, first of all, each of Compounds 1 to 4 was diluted with dimethyl sulfoxide to prepare a sample solution. Thereafter, 2×10^3 of MCF-7 were inoculated in each well of a 96-well plate, and estradiol and the sample solution were added thereto after 4 hours. Estradiol was added to each compartment so that the final concentration of estradiol can be 0.1 nM, and the final concentration of the sample solution can be 0.2 μM, 2 μM, or 20 μM. After incubation for a predetermined period of time (three or five days), each of the media was replaced with a new medium, and an enzyme solution (Cell counting Kit-8: Wako) was added to the new medium in an amount of 10% of the new medium. After maintained the medium in an incubator at a temperature of 37° C. for two hours, the absorbance of the medium was determined at a wavelength of 450 nm (a reference wave length of 630 nm) by means of a spectrophotometer so as to quantify the number of living cells in each compartment.
As for the compartment whose incubation period is predetermined to be five days, on the third day of the incubation, the medium was replaced with a new medium, and thereafter, estradiol and a sample solution were added to the new medium, and the incubation was continued till fifth day. As for the compartment whose incubation period is predetermined to be 0 day, at four hours after the cells were inoculated, an enzyme solution was added to the medium. The medium was maintained in an incubator at a temperature of 37° C. for two hours, followed by determining the absorbance.
Instead of Compounds 1 to 4, eriodictyol was used to determine the absorbance according to a similar procedure to the above-mentioned one, and thus the number of living cells in each compartment was quantified. Furthermore, Control 1 to which neither estradiol nor a sample had been added was used to determine the absorbance according to a similar procedure to the above-mentioned one, and thus the number of living cells in each compartment was quantified, while Control 2 to which no sample had been added was used to determine the absorbance according to a similar procedure to the above-mentioned one, and thus the number of living cells in each compartment was quantified.
When it is assumed that the number of living cells of Control 1 as quantified after a zero-day incubation period is 1, the relative value of living cells as quantified in each of the runs mentioned above is shown in Table 2. Incidentally, each of values shown in Table 2 is the average value and standard deviation of values obtained from eight wells.

[2] = test system: Salmonella enteritidis (S. en; NBRC3313); assay: Antimicrobial activity test with Compounds 1 to 4; assay type: cell-based; details: for effect on growth and development of S. en (in words): 5-50 ppm
Method: (§1) That is, first of all, each of Compounds 1 to 4 was dissolved in 70% ethanol, and thereafter, standard agar media were prepared wherein the concentration of each of Compounds 1 to 4 was adjusted to be 0 ppm, 5 ppm, 10 ppm, 15 ppm, 20 ppm, or 50 ppm. Subsequently, these standard agar media were subjected to autoclave sterilization so as to prepare evaluation media, and each of the biological indicators was inoculated in each of these evaluation media. After the incubation of each of the bacteria, the number of the bacteria per a petri dish (CFU/petri dish) was determined.

[3] = test system: Staphylococcus aureus (Sta.); assay: Antimicrobial activity test with Compounds 1 to 4; assay type: cell-based; details: for effect on growth and development of Gram-positive bacteria, Sta. (in words): 5-50 ppm
Method: as §1

E. coli = assay: Antimicrobial activity test with Compounds 1 to 4; assay type: cell-based; details: for effect on growth and development of E. coli (in words): 5-50 ppm
Method: as §1

Bacillus cereus (B. ce) = assay: Antimicrobial activity test with Compounds 1 to 4; assay type: cell-based; details: for effect on growth and development of spore forming bacteria, B. ce (in words): 5-50 ppm
Method: as §1

[4] = DPPH radical scavenging activity test; assay type: biochemical; details: for Radical Scavenging Activity (%) from DPPH Radical Scavenging Activity Test: 25 μM sample solution in ethanol, 1 h in dark, absorbance 517 nm, average ± SD of three runs
Method: DPPH (α,α-diphenyl-β-picrylhydradil) is a purple stable radical having a maximum absorption at 517 nm, which is converted into colorless hydrazine by gaining hydrogen. This color reaction was utilized so as to determine the radical scavenging activity of each of Compounds 1 to 4 and the like. That is, each of Compounds 1 to 4 was dissolved in ethanol to prepare 3 ml of a sample solution having a concentration of 25 μM. Thereafter, to each of the resultant sample solutions, 0.75 ml of a 0.5 mM DPPH solution (whose solvent was ethanol) was added and stirred, and reacted in a dark place for one hour, followed by the determination of an absorbance at 517 nm. Furthermore, in place of Compounds 1 to 4, BHT (butylated hydroxytoluene), α-tocopherol or eriodictyol was used so as to determine an absorbance according to a similar procedure to the above. Besides, instead of the above sample solutions, ethanol was used as a control so as to determine an absorbance according to a similar procedure to the above. Then the radical scavenging activity (%) of each of the materials was calculated using the following calculation formula 1. Incidentally, each of values shown in Table 1 is the average value and standard deviation of values obtained from three runs. (Radical Scavenging Activity)=[{(Absorbance of Control)−(Absorbance of Sample Solution)}/(Absorbance of Control)]×100 Calculation Formula 1

[5] = 0.2 μM sample, after 3-days incubation
[6] = 0.2 μM sample, after 5-days incubation
[7] = 0.2 μM sample, on 0-day incubation, mean ± SD of eight wells
[8] = 2 μM sample, after 3-days incubation
[9] = 2 μM sample, after 5-days incubation
[10] = 2 μM sample, on 0-day incubation
[11] = 20 μM sample, after 3-days incubation
[12] = 20 μM sample, after 5-days incubation
[13] = 20 μM sample, on 0-day incubation
[14] = 5 ppm in standard agar medium, 0 ppm: >3000 (Table 3), 221 (Table 4)
[15] = 5 ppm in standard agar medium, 0 ppm: 470 (Table 3), 202 (Table 4)
[16] = 5 ppm in standard agar medium, 0 ppm: >3000 (Table 3), 5 (Table 4)
[17] = 5 ppm in standard agar medium, 0 ppm: 13 (Table 3), 183 (Table 4)

Row | SMILES | Relative Value of Living Cells [1, 5] | Relative Value of Living Cells [1, 6] | Relative Value of Living Cells [1, 7] | Relative Value of Living Cells [1, 8] | Relative Value of Living Cells [1, 9] | Relative Value of Living Cells [1, 10] | Relative Value of Living Cells [1, 11] | Relative Value of Living Cells [1, 12] | Relative Value of Living Cells [1, 13] | effect on growth and development of S. en (in words) [2] | Number of Bacteria, S. en [2, 14] [CFU/petri dish] | Number of Bacteria, S. en ([2]; 10 ppm in standard agar medium) [CFU/petri dish] | Number of Bacteria, S. en ([2]; 15 ppm in standard agar medium) [CFU/petri dish] | Number of Bacteria, S. en ([2]; 20 ppm in standard agar medium) [CFU/petri dish] | Number of Bacteria, S. en ([2]; 50 ppm in standard agar medium) [CFU/petri dish] | effect on growth and development of Gram-positive bacteria, Sta. (in words) [3] | Number of Bacteria, Sta. [3, 15] [CFU/petri dish] | Number of Bacteria, Sta. ([3]; 10 ppm in standard agar medium) [CFU/petri dish] | Number of Bacteria, Sta. ([3]; 15 ppm in standard agar medium) [CFU/petri dish] | Number of Bacteria, Sta. ([3]; 20 ppm in standard agar medium) [CFU/petri dish] | other results
1 | CC(C)=CCC/C(C)=C/Cc1cc([C@@H]2CC(=O)c3c(O)cc(O)cc3O2)cc(O)c1O [Compound 2, 5,7,3′,4′-tetrahydroxy-5′-C-geranylflavanone] | 2.97 ± 0.37 | 6.83 ± 0.58 | 0.95 ± 0.04 | 2.68 ± 0.19 | 6.59 ± 0.50 | 0.99 ± 0.04 | 2.59 ± 0.21 | 5.59 ± 1.01 | 1.00 ± 0.07 | little effect upon the growth and development | >3000 | >3000 | >3000 | >3000 | >3000 | more strongly the growth and development of each of Gram-5 positive bacteria and spore forming bacteria is inhibited | 395 | 108 | 22 | 0 | Number of Bacteria, Sta. ([3]; 50 ppm in standard agar medium): 0 CFU/petri dish; effect on growth and development of E. coli (in words) (E. coli): little effect upon the growth and development; Number of Bacteria, E. coli (E. coli; [16]): >3000 CFU/petri dish; Number of Bacteria, E. coli (E. coli; 10 ppm in standard agar medium): >3000 CFU/petri dish; Number of Bacteria, E. coli (E. coli; 15 ppm in standard agar medium): >3000 CFU/petri dish; Number of Bacteria, E. coli (E. coli; 20 ppm in standard agar medium): >3000 CFU/petri dish; Number of Bacteria, E. coli (E. coli; 50 ppm in standard agar medium): >3000 CFU/petri dish; effect on growth and development of spore forming bacteria, B. ce (in words) (Bacillus cereus (B. ce)): more strongly the growth and development of each of Gram-5 positive bacteria and spore forming bacteria is inhibited; Number of Bacteria, B. ce (Bacillus cereus (B. ce); [17]): 17 CFU/petri dish; Number of Bacteria, B. ce (Bacillus cereus (B. ce); 10 ppm in standard agar medium): 0 CFU/petri dish; Number of Bacteria, B. ce (Bacillus cereus (B. ce); 15 ppm in standard agar medium): 0 CFU/petri dish; Number of Bacteria, B. ce (Bacillus cereus (B. ce); 20 ppm in standard agar medium): 0 CFU/petri dish; Number of Bacteria, B. ce (Bacillus cereus (B. ce); 50 ppm in standard agar medium): 0 CFU/petri dish; Radical Scavenging Activity (%) from DPPH Radical Scavenging Activity Test [4]: 49.86 ± 0.96%
2 | CC(C)=CCC/C(C)=C/Cc1c(O)cc2c(c1O)C(=O)C[C@@H](c1ccc(O)c(O)c1)O2 [Compound 3, 5,7,3′,4′-tetrahydroxy-6-C-geranylflavanone] | 2.94 ± 0.20 | 6.99 ± 0.66 | 0.99 ± 0.05 | 2.53 ± 0.30 | 5.38 ± 0.44 | 1.01 ± 0.05 | 1.21 ± 0.22 | 0.89 ± 0.12 | 0.96 ± 0.04 | antimicrobial activity | 296 | 207 | 116 | 143 | 43 | high antimicrobial activity | 22 | 0 | 0 | 0 | inhibiting effect on the proliferation of breast cancer cells (in words) ([1]; 20 μM, compared with Control 1): cytotoxic effect upon breast cancer cells; Number of Bacteria, Sta. ([3]; 50 ppm in standard agar medium): 0 CFU/petri dish; effect on growth and development of E. coli (in words) (E. coli): high antimicrobial activity; Number of Bacteria, E. coli (E. coli; [16]): 3 CFU/petri dish; Number of Bacteria, E. coli (E. coli; 10 ppm in standard agar medium): 1 CFU/petri dish; Number of Bacteria, E. coli (E. coli; 15 ppm in standard agar medium): 0 CFU/petri dish; Number of Bacteria, E. coli (E. coli; 20 ppm in standard agar medium): 0 CFU/petri dish; Number of Bacteria, E. coli (E. coli; 50 ppm in standard agar medium): 0 CFU/petri dish; effect on growth and development of spore forming bacteria, B. ce (in words) (Bacillus cereus (B. ce)): high antimicrobial activity; Number of Bacteria, B. ce (Bacillus cereus (B. ce); [17]): 4 CFU/petri dish; Number of Bacteria, B. ce (Bacillus cereus (B. ce); 10 ppm in standard agar medium): 0 CFU/petri dish; Number of Bacteria, B. ce (Bacillus cereus (B. ce); 15 ppm in standard agar medium): 0 CFU/petri dish; Number of Bacteria, B. ce (Bacillus cereus (B. ce); 20 ppm in standard agar medium): 0 CFU/petri dish; Number of Bacteria, B. ce (Bacillus cereus (B. ce); 50 ppm in standard agar medium): 0 CFU/petri dish; Radical Scavenging Activity (%) from DPPH Radical Scavenging Activity Test [4]: 64.00 ± 0.58%; radical scavenging activity (in words) ([4]; comparison from Table 1): highest radical scavenging activity
